# In ChEMBL document CHEMBL1124251, “Topical nonsteroidal antipsoriatic agents. 2. 2,3-(Alkylidenedioxy)naphthalene analogues of lonapalene” (1988):
# Test system: Mus musculus
# Assay: Percent inhibition of arachidonic acid induced mouse ear edema at 2 mg of total dose; Insufficiently soluble in acetone
# Type: functional, organism-based
row,SMILES,inhibition
1,O=C(Oc1c2c(c(OC(=O)c3ccccc3)c3cc(Cl)ccc13)OCCO2)c1ccccc1,Insufficiently soluble in acetone
2,O=C(Oc1c2c(c(OC(=O)c3ccccc3)c3cc(Cl)ccc13)OCCCO2)c1ccccc1,Insufficiently soluble in acetone

# Test system: Mus musculus
# Assay: Percent inhibition of arachidonic acid induced mouse ear edema at 2 mg of total dose
# Type: functional
row,SMILES,Inhibition
1,CCCC(=O)Oc1c2c(c(OC(=O)CCC)c3cc(Cl)ccc13)OCCCO2,35%
2,CC(C)(C)C(=O)Oc1c2c(c(OC(=O)C(C)(C)C)c3cc(Cl)ccc13)OCCCO2,10%
3,CC(C)C(=O)Oc1c2c(c(OC(=O)C(C)C)c3cc(Cl)ccc13)OCCCO2,27%
4,COc1c(OC)c(OC(C)=O)c2cc(Cl)ccc2c1OC(C)=O [LONAPALENE],54%
5,CC(=O)Oc1c2c(c(OC(C)=O)c3cc(Cl)ccc13)OCO2,61%
6,CC(C)(C)C(=O)Oc1c2c(c(OC(=O)C(C)(C)C)c3cc(Cl)ccc13)OCCO2,41%
7,CC(C)C(=O)Oc1c2c(c(OC(=O)C(C)C)c3cc(Cl)ccc13)OCCO2,75%
8,O=C(Oc1c2c(c(OC(=O)c3ccccc3)c3cc(Cl)ccc13)OCO2)c1ccccc1,10%
9,CC(C)(C)C(=O)Oc1c2c(c(OC(=O)C(C)(C)C)c3cc(Cl)ccc13)OCO2,8%
10,CCCC(=O)Oc1c2c(c(OC(=O)CCC)c3cc(Cl)ccc13)OCCO2,26%
11,CC(=O)Oc1c2c(c(OC(C)=O)c3cc(Cl)ccc13)OCCO2,24%
12,CCC(=O)Oc1c2c(c(OC(=O)CC)c3cc(Cl)ccc13)OCO2,35%
13,CC(=O)Oc1c2c(c(OC(C)=O)c3cc(Cl)ccc13)OCCCO2,40%
14,CCC(=O)Oc1c2c(c(OC(=O)CC)c3cc(Cl)ccc13)OCCO2,30%
15,CCC(=O)Oc1c2c(c(OC(=O)CC)c3cc(Cl)ccc13)OCCCO2,10%
